Article PMC7269032, “Chiral 4-O-acylterpineol as transdermal permeation enhancers: insights of the enhancement mechanisms of a transdermal enantioselective delivery system for flurbiprofen” (Drug Delivery, 2020)
Values after ≈ are worked out from the molar mass of the structure shown. Like-named read-outs stand apart in the source and are kept apart here.

How the values were obtained:
[1] = Determination of drug oil-water partition coefficient (log P); type: physicochemical; conditions: n-octanol/water, 25 °C
Experimental: The same volume of water and n-octanol were mixed and shaken for 24 h at 25 °C, then the equal of water saturated n-octanol solution and n-octanol saturated aqueous solution through liquid-separation were obtained. The SR-FP or its single enantiomer (0.001 g) were added in the saturated solution, which were mixed to the ratio of 1:4, then shook for 24–48 h followed by stand for 24 h. (The shakings were in constant temperature air bath oscillator at 25 °C). Afterwards, the HPLC method was utilized to detect the concentration of the substance in the oil phase and the water phase.

[2] = In vivo pharmacokinetic study, transdermal patch administration; parameters: species or system rabbit; conditions: rabbits; for chiral inversion to the other enantiomer in vivo: patch loaded with individual enantiomer, plasma (Figure 2(F))
Experimental: Thirty-six male rabbits weighing 2.5 kg were divided into six groups, and the back skin was intact without erythema. For patch administration studies, patches without or with enhancers (120 mg/kg) were stuck to the shaved area of the rabbits. They were administered as follows: (1) control group: only the SR-FP; (2) enhancer group A: prepared SR-FP patch with 5% d-4-TER; (3) enhancer group B: prepared SR-FP patch with 5% d-4-T-dC18; (4) enhancer group C: prepared SR-FP patch with 5% l-4-T-dC18; (5) enhancer group D: prepared S-FP patch with 5% d-4-T-dC18; (6) enhancer group E: prepared R-FP patch with 5% d-4-T-dC18. In order to prevent the patches fallen off, gauze and medical tape were used to fix the patches. The blood from ear vein of rabbit was collected 0.5 mL at 0.5, 1, 2, 4, 6, 8, 12, 16, 20, 24, 26, 28, 30, 32, 36 and 48 h, and the patch was removed after 24 h, then the residual drug was wiped with physiological saline. The sample was processed by the same method as IV. All animal studies were carried out in accordance with the NIH Guidelines for the Care and Use of Laboratory Animals and were also approved by the Life Science Research Center of North China University of Science and Technology.
(§1) After being thawed and equilibrated to room temperature, an aliquot (100 μL) of plasma sample was spiked with […] (10 μL) of 40.0 μg/mL and 400 μL methanol. The samples were vortexed for 5 min and followed by centrifugation at 16,000 rpm for 10 min at 25 °C. After centrifugation, the supernatant was transferred to a clean tube and evaporated to dryness at 40 °C under a gentle stream of nitrogen. The dried samples were reconstituted with 100 μL mobile phase, vortexed and centrifuged before analysis.
(§2) Pharmacokinetic parameters were calculated using WinNonlin® software (Pharsight Corporation, San Diego, CA, USA) based on noncompartmental model, including the maximal plasma drug concentration (Cmax), the time to reach Cmax (Tmax) which were obtained from the observed data, the area under the time–concentration curve from time 0 to time t (AUC0–t) of distribution which was calculated using the linear trapezoidal rule, the mean residence time (MRT), the plasma clearance (Cl) and the apparent volume(V). Enhancement factor (Ef) was calculated from the following equation: Ef=AUC0−t(with enhancer)/AUC0−t(without enhancer)
(§3) The concentrations of drugs in the receptor medium or rabbit plasma were determined using a validated HPLC method. The HPLC system was equipped with a Shimadzu HPLC apparatus, including an LC-20AT pump, a SIL20A syringe, an SPD-20A detector, and a CTO-20A column oven. The propylparaben was used as an internal standard, and the flow rate of chromatographic analysis was set 1.0 mL/min. For in vitro analysis of SR-FP, thermo (USA) C18 column (150 mm × 4.6 mm, 5 μm particle) maintained at 40 °C was used to elute SR-FP, the mobile phase was used methanol and 1% aqueous glacial acetic acid (60:40, v/v) and the wavelength was set at 247 nm. The HPLC conditions of S-FP and R-FP were as follows: The column was CHIRALPAK®IA (4.6 mm × 250 mml, 5 μm particle diameter) of DAOCEL (Shanghai, China). The mobile phase consisted of acetonitrile and trifluoroacetic acid (0.05%, 50:50, v/v), the wavelength was set at 254 nm. For in vivo analysis of S-FP and R-FP, the mobile phase consisted of acetonitrile and trifluoroacetic acid (0.05%, 35:65, v/v), and other conditions were the same to in vitro analysis.
Absolute bioavailability (F) was calculated by the following equation: F=AUCpatch·Dosei.v./AUCi.v.·Dosepatch

[3] = In vivo pharmacokinetic study, intravenous administration; parameters: species or system rabbit; conditions: rabbits, IV of 4.8 mg/kg SR-FP, enantiomer measured in plasma
Experimental: A certain amount of FP was dissolved in a mixed solution of sterile water and Tween-80 at 2.0 mg/mL. The fresh intravenous solution was prepared just before intravenous administration.
Six male rabbits weighing 2.5 kg were selected for IV. A capacity of 4.8 mg/kg FP (0.2 g FP was dissolved in a mixed solution of pure water and Tween80) was administered to the one ear vein of rabbit, the other ear vein of rabbit was phlebotomized about 0.5 mL at 5, 10, 15, 30 min and 1, 2, 3, 4, 6, 8, 10, 12 h. The blood samples were centrifuged at 4000 rpm for 10 min and kept at –80 °C.
as §1, §2
as §3, with “For in vivo analysis of S-FP and R-FP, the mobile phase consisted of acetonitrile and trifluoroacetic acid (0.05%, 35:65, v/v), and other conditions were the same to in vitro analysis.” left out

[4] = Determination of drug solubility; type: physicochemical; conditions: pure water, 25 °C; for solubility: 48 h
Experimental: The excess SR-FP or its single enantiomer (0.01 g) were sealed to 10 mL of pure water at 25 °C in glass vials and waved for 48 h in constant temperature air bath oscillator […]. Finally, the contents were passed through the 0.45 μm microporous membrane and centrifuged at 10,000 rpm for 5 min, then aliquots for the supernatant saturated solution were diluted and analyzed by HPLC. The experiments were performed in triplicate.

[5] = In vitro permeation experiment of FP drug-in-adhesive patches in two-chamber diffusion cells; type: in vitro ADME, rabbit; conditions: for Tlag of R-FP / Js of R-FP / Tlag of S-FP / Js of S-FP / Tlag of SR-FP / Js of SR-FP: enhancer equimolar to 5% 4-TER (control: no enhancer); for Js of R-FP / Js of S-FP / Js of SR-FP: mean ± SD, n = 4
Description: Male, Japanese big-eared rabbits weighting 2.5–3.0 kg were purchased from the animal experimental center of North China University of Science and Technology. The experimental process was in accordance with the ‘Ethical Guide for Laboratory Animal Investigation’ and was approved by the Animal Experimental Center Committee of North China University of Science and Technology. All efforts were made to minimize animal suffering and to limit the number of animals used.
The hair of back skin was removed by clipper and electrical shaver carefully when the rabbits were anesthetized with ether. Full thickness of back skin was excised after the rabbit was sacrificed by injecting air into the ear veins, and the subcutaneous fat tissue was carefully removed using the surgical scissor and scalpel. The integrity of the skin was confirmed by microscopic observation method. The treated rabbit skin was cut into a size of 1.5 cm × 1.5 cm and stored at –80 °C until use. Before use, it needed to be immersed in physiological saline for 20 min to thaw.
Drug-in-adhesive patch (drug loading of 5% by adhesive) was prepared by using solvent evaporation method. An appropriate amount of FP was dissolved in a suitable amount of ethyl acetate, which was later added to the adhesive and mixed thoroughly with a mechanical stirrer. The resulting solution was coated onto release liner (Scotch Pak® 9744, 3M, USA) by using lab coating unit (6025, BLD Instruments Co. Ltd., Guangdong, China). The coated laminate was dried at 50 °C for 15 min. After the solvent had been removed, it was covered with backing laminate (Scotch Pak® 9732, 3M).
Modified two-chamber diffusion cells with an effective diffusion area of 0.95 cm^2 were employed in the in vitro permeation experiment. The cells were kept at 32 °C by the circulated water bath and stirred with magnetic bars at 400 rpm. The dermis side of the skin was attached to one-half of the side-by-side diffusion cells, the FP patch was pressed on the skin with the adhesive side facing the SC, and pH 7.4 PBS was used as the receptor medium. At predetermined time points (2, 4, 6, 8, 10, 12 and 24 h), the receptor solution of 2.0 mL was withdrawn and equal volume PBS was added to maintain a constant volume of receptor solution.
The cumulative amount of each drug permeating per unit area (Q) versus time was plotted. Q24h=(3.5Ci+2.0∑i=1n−1Ci−1)/A
Q was the cumulative skin permeation amount. Ci was the concentration in the receiver compartment at time i, A was the effective diffusion area of diffusion.
The steady-state flux (Js, µg/cm^2/h) was calculated from the slope of linear region of the plot. The lag-time was determined by extrapolating the linear portion of the curve to the abscissa. Js=dQr/Adt
Enhancement ratio (ER) was used to evaluate the activity of the enhancers, which is the ratio of Q24h with enhancer to Q24h without enhancer. ER=Q24h(with enhancer)/Q24h(without enhancer)

[6] = permeant R-FP, patch 5% drug (w/w)
[7] = permeant S-FP, patch 5% drug (w/w)
[8] = permeant SR-FP, patch 5% drug (w/w)

SMILES | logP [1] | chiral inversion to the other enantiomer in vivo [2] | Cl [3] [L/h] | MRT [3] [h] | solubility [4] [µg/mL] | Tlag of R-FP [5, 6] [h] | Js of R-FP [5, 6] [μg/cm^2/h] | Tlag of S-FP [5, 7] [h] | Js of S-FP [5, 7] [μg/cm^2/h] | Tlag of SR-FP [5, 8] [h] | Js of SR-FP [5, 8] [μg/cm^2/h] | further results
C[C@@H](C(=O)O)c1ccc(-c2ccccc2)c(F)c1 [R-FP] | 1.83 ± 0.09 | S-FP could be detected | 0.52 ± 0.03 | 1.84 ± 0.15 | 49.82 ± 1.31 (≈ 204 µM) | 2.43 | 2.43 ± 0.18 |  |  |  |  | 
C[C@H](C(=O)O)c1ccc(-c2ccccc2)c(F)c1 [S-FP] | 1.86 ± 0.05 | had not been observed | 0.30 ± 0.02 | 2.04 ± 0.23 | 46.39 ± 4.30 (≈ 190 µM) |  |  | 3.82 | 2.65 ± 0.29 |  |  | 
CC1=CCC(O)(C(C)C)CC1 (stereo not drawn) [d-4-TER, d-4-terpineol, reference compound] |  |  |  |  |  | 3.58 | 7.34 ± 2.51 | 2.45 | 7.60 ± 1.47 | 3.60 | 14.43 ± 3.62 | V of R-FP ([2]; SR-FP patch with 5% enhancer or without (control), analyte R-): 251.59 ± 56.91 L; V of S-FP ([2]; SR-FP patch with 5% enhancer or without (control), analyte S-): 99.27 ± 18.81 L; cumulative transport of SR-FP at 24 h ([5]; 3% enhancer level (w/w)): 168.14 ± 19.95 μg/cm^2; cumulative transport of SR-FP at 24 h ([5]; 5% enhancer level (w/w)): 266.01 ± 58.81 μg/cm^2; ER (Q24h with enhancer/Q24h without enhancer) for R-FP ([5]; permeant R-FP, patch 5% drug (w/w), enhancer equimolar to 5% 4-TER): 2.74; ER (Q24h with enhancer/Q24h without enhancer) for S-FP ([5]; permeant S-FP, patch 5% drug (w/w), enhancer equimolar to 5% 4-TER): 2.97; ER (Q24h with enhancer/Q24h without enhancer) for SR-FP ([5]; permeant SR-FP, patch 5% drug (w/w), enhancer equimolar to 5% 4-TER): 2.16
CC(C(=O)O)c1ccc(-c2ccccc2)c(F)c1 (centres unmarked) [SR-FP, Flurbiprofen] |  |  |  |  |  |  |  |  |  | 3.31 | 5.54 ± 0.37 | logP ([1]; read-out: logP): 2.28 ± 0.04; solubility at 48 h [4]: 89.1 ± 5.48 µg/mL (≈ 365 µM); cumulative transport of SR-FP at 24 h ([5]; 0% enhancer level (w/w)): 122.93 ± 8.02 μg/cm^2
